The text below walks through data of PubChem BioAssay (NCI).

Several values for one entry are separate records, joined by “and”; a condition that tells them apart may be missing. Identical values can stand only once.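 Protocol summary: plate cells (96-well), add compound at 5 concentrations, incubate 48 h, interpolate endpoints linearly. GI50 = concentration required for 50% inhibition of growth. The concentration for full growth arrest is given as TGI.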

Assay in all cases: DTP human tumour cell line panel, 48 h
The test system of assay [1] is SNB-78 CNS.
Assay [2] has as its system DLD-1 colon.
Assay [3] relates to RXF-631 renal.
Assay [4] concerns MDA-MB-435.
The test system of assay [5] is DU-145 prostate.
Assay [6] deals with MDA-N.

`C#Cc1cccc(NC(=O)/C=C\C(=O)O)c1`: the TGI in assay [1] and in assay [2] was above 100 µM each time.

In the case of `Cc1ccc(-n2c3nc(=O)n(C)c(=O)c-3nc3ccccc32)c(C)c1`, the TGI (in general, the concentration at which net growth stops) in assay [3] stood at 23.9 µM; in assay [1], 44.5 µM; in assay [2] it was 39.9 µM.

As for `CS(=O)(=O)OCCN1CCN(C(=O)c2ccc(Cl)c3c(Nc4ccc(S(=O)(=O)N=C(N)N)cc4)c4ccccc4nc23)CC1`, the TGI in assay [3] and in assay [2] was above 100 µM in each case.

Regarding `N=C(N)n1cc(/C=N/N=C(N)N)cn1`, the TGI in assay [4], in assay [5] and in assay [6] was above 100 µM each time.

With `CCOC1c2nc3ccccc3nc2-c2ccccc2N1C(C)=O` (stereo not given), the concentration for total growth inhibition (TGI) in assay [3], in assay [1] and in assay [2] was above 100 µM throughout.

As for `CC(C)(C)C1=NO[C@H]2[C@@H](NC(=O)c3ccccc3)CC[C@@H]12`, the TGI in assay [1] and in assay [2] was above 100 µM each time.

With `CCCC(O)[C@@]1(CC)CC(C)C(O)(C2(C)C[C@H](C)[C@@H](C(CC)C(=O)C(C)[C@@H](O)[C@H](C)C3OC(O)(C(CC)C(=O)O)[C@@H](C)C(O)C3CC)O2)O1` (stereo not given in full), the concentration for total growth inhibition (TGI) in assay [3] was determined as 1.93 µM; in assay [1], 31.7 µM; in assay [2], 8.86 µM; in assay [4], 1.2 µM; in assay [5] it was 1.31 µM; in assay [6] it was 1.86 µM.

For `CC(C)(C)OC(=O)N[C@H]1CC(=O)c2ccccc2N(CC(=O)O)C1=O`, the TGI in assay [3] and in assay [2] was above 100 µM throughout.

With `COC(=O)C1CCC(C)CC1=O` (stereo not given), the TGI in assay [3], in assay [1] and in assay [2] was above 100 µM throughout.

Consider `O=C1OC(=O)c2c1nc1ccccc1c2-c1ccccc1`, for which the TGI in assay [3], in assay [1] and in assay [2] was above 100 µM each time.

As to `[O-][n+]1c2cccc(O)c2[n+]([O-])c2cccc(O)c21`, the TGI in assay [4], in assay [5] and in assay [6] was above 100 µM in each case.

For the compound `CCc1c(OC(C)=O)c2c(NC3OC(COC(C)=O)C(OC(C)=O)C(OC(C)=O)C3OC(C)=O)nc(SC)nc2oc1=O` (stereo not given), the TGI in assay [3], in assay [1] and in assay [2] was above 100 µM each time.

In the case of `CCC(Oc1ccc(OC)c2c1C(=O)CCC2)C(=O)O` (stereo not given), the TGI in assay [1] and in assay [2] was above 100 µM throughout.

As to `CNC(=O)OCc1nc(SSc2nc(COC(=O)NC)c(COC(=O)NC)n2C)n(C)c1COC(=O)NC`, the TGI in assay [3], in assay [1] and in assay [2] was above 100 µM each time.

Regarding `O=C1C2C(C(=O)N1Cc1ccccc1)N(Cc1ccccc1)C(=O)N2Cc1ccccc1` (stereo not given), the TGI in assay [3], in assay [1] and in assay [2] was above 100 µM in each case.

With `CCOC(=O)C1C(c2ccc(Br)cc2)N(Cc2ccccc2)C(c2ccc(Br)cc2)C(C(=O)OC)S1(=O)=O` (stereo not given), the TGI in assay [1] and in assay [2] was above 100 µM each time.

For the compound `CC(C)(C)O/N=C/c1cc(NC(=S)c2ccccc2)ccc1Cl`, the TGI was 88.7 µM in assay [4], 42.1 µM in assay [5] and 29.9 µM in assay [6].

Regarding `COS(=O)c1cc(Cl)cc(Cl)c1OC(=O)CSSCC(=O)Oc1c(Cl)cc(Cl)cc1S(=O)OC` (stereo not given), the TGI in assay [3] came out at 63.7 µM; in assay [1] it was 76.2 µM; in assay [2], 40.7 µM.

Consider `O=C([O-])c1ccc([I+]c2ccccc2)cc1`, for which the TGI in assay [3], in assay [1] and in assay [2] was above 100 µM each time.

Take `O=C1C=CC2(CCC23C=CC(=O)O3)O1` (stereo not given): the TGI in assay [3], in assay [1] and in assay [2] was above 100 µM throughout.

With `CCCCCCCCCCCCCCCC(=O)OCC1OC(n2cc(F)c(=O)[nH]c2=O)C(NC(=O)OCc2ccccc2)C(O)C1O` (stereo not given), the TGI in assay [3] came to 34.9 µM; in assay [1] it was 52.1 µM.

For `CCN(CC)CCNc1n[n+]([O-])c2cc([N+](=O)[O-])ccc2[n+]1[O-]`, the TGI is 2.71 µM and 2.37 µM and 2.29 µM in assay [4]; 6.15 µM and 3.57 µM and 3.16 µM in assay [5]; 2.48 µM and 1.65 µM and 1.2 µM in assay [6]. For the same compound, in assay [5], the GI50 (in general, the concentration at which growth is held to half of that of the control) was 1.2 µM and 0.63 µM and 0.578 µM.

`N#Cc1ccccc1Sc1ccccc1N`: the TGI in assay [1] and in assay [2] was above 100 µM each time.

`C/C(=N\NC(=S)N1CCC1)c1ccccn1`: the TGI in assay [3] was above 64.6 µM; in assay [1] it was above 100 µM; in assay [2], above 100 µM; in assay [4], 73.7 µM; in assay [5] it was above 100 µM; in assay [6], above 100 µM. The values for the GI50 in assay [4] and in assay [6] were 0.357 µM and 0.476 µM, respectively.

Consider `O=C1C=CC2(O)OCC3C=C4O[C@@H]5OC6(CCCCC6)O[C@@H]5C4[C@@H]2[C@@H]13` (stereo not given in full), for which the TGI in assay [1] was found to be 83.3 µM; in assay [2], 50.6 µM.

In the case of `CCOC(=O)C1=C(C)N(NC(N)=O)C2(N)N(NC(N)=O)C(C)=C(C(=O)OCC)C12C#N` (stereo not given), the TGI in assay [3] and in assay [2] was above 100 µM in each case.

As to `COc1ccc(N(CC(=O)O)N=O)cc1`, the TGI in assay [4], in assay [5] and in assay [6] was above 100 µM in each case.

As for `Nc1nc(-c2ccccc2)c(CC(=O)O)s1`, the TGI in assay [4], in assay [5] and in assay [6] was above 100 µM in each case.

`COc1ccccc1/C=C(\NC(=O)c1ccccc1)c1nc2ccc(Cl)cc2[nH]1`: the figures for the TGI in assay [1] and in assay [2] were above 100 µM and 88.9 µM, respectively.

In the case of `Cc1ccc(-n2nc(C(OC3OC(CO)C(O)C(O)C3O)C(O)CO)c3nc4cc(C)c(C)cc4nc32)cc1` (stereo not given), the TGI in assay [3], in assay [1] and in assay [2] was above 100 µM in each case.

Consider `CC(C)N(C(=O)C12C3C4C1C1C4(C#N)C3C12C(=O)O)C(C)C` (stereo not given), for which the TGI in assay [3], in assay [1] and in assay [2] was above 100 µM each time.

`CN1CCCc2nc3ccccc3n2C1`: the TGI in assay [1] and in assay [2] was above 100 µM in each case.

As for `CC[n+]1c(-c2ccccc2)c2cc(N)ccc2c2ccc(N)cc21`, the GI50 in assay [4] is 1.11 µM; in assay [5], 2 µM. The TGI in assay [4] is 2.56 µM and 12.5 µM; in assay [5] it was 13.3 µM and 42 µM; in assay [6], 19 µM.

In the case of `O=c1c2ccccc2nc(-c2cccc(Cl)c2)n1NC1OC(CO)C(O)C(O)C1O` (stereo not given), the TGI in assay [3] and in assay [1] was above 100 µM throughout.

Take `C[n+]1cn(CC(=O)c2ccccc2)c(C(N)=O)c1N`: the TGI in assay [3], in assay [1] and in assay [2] was above 100 µM each time.

For the compound `CCCCCCCCCC1CC(=O)OC23CCCC(=O)C12O3` (stereo not given), the TGI in assay [1] and in assay [2] was above 100 µM each time.

On to `C=C1C(=O)O[C@@H]2C[C@@]3(C)[C@H](O)CCC(=C)[C@@H]3C[C@H]12`, for which the TGI in assay [3] was determined as 28.1 µM; in assay [1] it was 27.8 µM; in assay [2], 16.5 µM.

Turning to `Cc1nc2sccn2c1C(=O)NNC(N)=S`, the TGI in assay [2] is above 100 µM.

On to `CC(=O)C1(C(=O)C(=[N+]=[N-])S(=O)(=O)c2ccccc2)CC1`, for which the TGI in assay [4], in assay [5] and in assay [6] was above 100 µM each time.

`OC1=CN=C(c2ccccc2)Oc2ccccc21`: the TGI in assay [3], in assay [1] and in assay [2] was above 100 µM each time.

As to `COc1cccc(-c2cc(=O)c3cc(N4CCN(C)CC4)ccc3[nH]2)c1`, the GI50 in assay [4] was 0.16 µM; in assay [6], 0.349 µM. In addition, the TGI in assay [4] was 0.554 µM and 0.364 µM; in assay [6], 0.923 µM and 4.25 µM.

In the case of `O=C(Nc1ccccc1C(=O)NC(=O)c1ccccc1NC(=O)c1ccccc1)c1ccccc1`, the TGI in assay [2] worked out at 29.7 µM.
